Measured values: paper PMC4646072 (Chemistry (Weinheim an der Bergstrasse, Germany), 2015)

Molecular target: AgtA (His6AgtA) (Dictyostelium discoideum, UniProt Q54RP0)
Experiment: radiometric galactosyl transfer from UDP-[3H]Gal
Type: biochemical
Conditions: 10 µM UDP-[3H]Gal, 60 min; acceptor substrate

AgtA (His6AgtA), sequence (Q54RP0 whole entry): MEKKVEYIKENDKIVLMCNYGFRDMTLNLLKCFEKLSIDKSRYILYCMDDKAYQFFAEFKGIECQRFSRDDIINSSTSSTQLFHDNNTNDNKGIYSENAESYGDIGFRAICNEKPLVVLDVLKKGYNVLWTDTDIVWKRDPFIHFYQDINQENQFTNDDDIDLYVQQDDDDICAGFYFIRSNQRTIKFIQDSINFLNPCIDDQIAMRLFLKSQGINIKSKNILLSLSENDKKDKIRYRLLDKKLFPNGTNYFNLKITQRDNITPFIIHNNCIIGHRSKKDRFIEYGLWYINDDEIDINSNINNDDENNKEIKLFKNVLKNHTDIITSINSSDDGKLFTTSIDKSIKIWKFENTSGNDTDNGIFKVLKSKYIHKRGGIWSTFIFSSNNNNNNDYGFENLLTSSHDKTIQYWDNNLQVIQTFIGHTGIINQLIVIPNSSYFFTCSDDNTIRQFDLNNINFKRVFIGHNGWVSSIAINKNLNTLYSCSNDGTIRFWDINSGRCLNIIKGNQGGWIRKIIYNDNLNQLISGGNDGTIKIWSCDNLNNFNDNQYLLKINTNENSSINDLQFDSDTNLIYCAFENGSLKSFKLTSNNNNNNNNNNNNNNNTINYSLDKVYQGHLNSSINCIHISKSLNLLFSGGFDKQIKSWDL

## C[C@@H]1O[C@@H](Oc2ccc([N+](=O)[O-])cc2)[C@@H](O)[C@H](O)[C@@H]1O [F-pNP]
  radiometric galactosyl transfer from UDP-[3H]Gal: Comparison of AgtA activity towards F-pNP and FGGn-pNP
